A value given as a limit tells only on which side of the number the result lay.

Assay [1] addresses T1, Full-length human Chk1 protein (Homo sapiens, UniProt O14757).
T1 construct: purchased Carna Biosciences, Inc. 02-117
T1 sequence (O14757 1-476): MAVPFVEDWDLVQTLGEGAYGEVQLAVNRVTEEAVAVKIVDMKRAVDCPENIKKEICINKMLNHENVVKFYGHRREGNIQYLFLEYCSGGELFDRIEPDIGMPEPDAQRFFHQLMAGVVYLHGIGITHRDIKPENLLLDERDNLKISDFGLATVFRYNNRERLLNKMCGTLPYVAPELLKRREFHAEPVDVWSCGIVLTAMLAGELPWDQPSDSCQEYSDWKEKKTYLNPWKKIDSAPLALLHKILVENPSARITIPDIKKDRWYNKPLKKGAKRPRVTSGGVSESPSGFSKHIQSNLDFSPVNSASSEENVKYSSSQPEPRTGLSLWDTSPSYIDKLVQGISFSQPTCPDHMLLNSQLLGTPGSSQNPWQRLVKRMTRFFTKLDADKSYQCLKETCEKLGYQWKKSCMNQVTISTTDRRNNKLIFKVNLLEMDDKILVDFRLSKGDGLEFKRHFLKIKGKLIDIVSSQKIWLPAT
The experiment in a line: Kinase HTRF biochemical assay (HTRF KinEASE), Chk1 enzyme activity. The note with it: full-length human Chk1, ATP 1 mM, 60 minutes at room temperature. In outline: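 Full-length human Chk1 (0.012 ng/μL) in buffer with 5 mM MgCl2 and 1 mM DTT, preincubated with compound 10 min at room temperature; reaction with 120 nM biotinylated STK substrate 1 and 1 mM ATP for 60 min at room temperature. HTRF detection via cryptate antibody/streptavidin-XL665; IC50 from 10-point duplicate curves.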

Assay [2] deals with p-CHK1 (Ser345). The experiment in a line: AlphaLISA SureFire Ultra p-CHK1 (Ser345) cellular assay in HT29 cells. It counts as cell-based. Particulars: Homo sapiens, HT-29, 16 h at 37° C. As for the experimental part: Example B: AlphaLisa Cellular Assay
Compound activity in cells was measured using an AlphaLISA® SureFire® Ultra™ p-CHK1 (Ser345) assay (Perkin Elmer, catalog no. ALSU-PCHK1-A10K). HT29 cells were cultured in McCoy 5A medium with 10% FBS and 1% penicillin-streptomycin and seeded to 96-well plates (Corning, catalog no. 3599). Compounds were serially diluted in DMSO over a 10-point dose range with 3-fold dilution and to each well containing cells was added compound solution. Plates were centrifuged at 1000 rpm for 30 seconds. Plates were incubated at 37° C. for 16 h. Supernatant was removed by flicking the plate against a paper towel. Wells were washed once with PBS solution. To each well was added freshly prepared lysis buffer and plates were agitated on a plate shaker at 400 rpm for 30 min. The 96-well cell plates were centrifuged at 1500 rpm for 1 minute. From each well was transferred 10 μL of the lysates to a 384-well Optiplate™ (Perkin Elmer, catalog no. 6007290). To each well was added Acceptor Mix (5 μL) and the plates were sealed and wrapped in foil. Plates were agitated on a plate shaker for 2 minutes, then incubated at room temperature for 1 h. To each well was added Donor Mix (5 μL) and the plates were sealed and wrapped in foil. Plates were agitated on a plate shaker for 2 minutes, then incubated at room temperature for 1 h. AlphaLisa signal was read on an EnVision multimode plate reader (Perkin Elmer). Data were fit to dose-response curves using XLfit (IDBS, Surrey, UK) or Prism (GraphPad Software, La Jolla, Calif., US) to calculate IC50 values for each compound tested.
For orientation: Alpha assays give light when donor and acceptor beads are brought close together.

With `COc1cc(F)cc(O[C@@H]2CC[C@H](N)C2)c1-c1cc(Nc2cnc(C#N)cn2)n[nH]1` [Example 1-28, 5-((5-(2-(((1R,3S)-3-aminocyclopentyl)oxy)-4-fluoro-6-methoxyphenyl)-1H-pyrazol-3-yl)amino)pyrazine-2-carbonitrile], the IC50 (in general, the concentration needed to halve the response being measured) was ≤ 0.01 µM in assay [1] and ≤ 0.05 µM in assay [2].
The corresponding values for `COc1cc(Cl)cc(O[C@@H]2CC[C@H](N)C2)c1-c1cc(Nc2cnc(C#N)cn2)n[nH]1` [Example 1-29, 5-((5-(2-(((1R,3S)-3-aminocyclopentyl)oxy)-4-chloro-6-methoxyphenyl)-1H-pyrazol-3-yl)amino)pyrazine-2-carbonitrile] are ≤ 0.01 µM and 0.1 to 0.5 µM.
The corresponding values for `N#Cc1cnc(Nc2cc(-c3c(OCC4CC4)cccc3O[C@H]3C[C@H](N)C3)[nH]n2)cn1` [Example 1-32, 5-((5-(2-((1r,3r)-3-aminocyclobutoxy)-6-(cyclopropylmethoxy)phenyl)-1H-pyrazol-3-yl)amino)pyrazine-2-carbonitrile] are 0.01 to 0.1 µM and 0.5 to 1 µM.
The corresponding values for `CN[C@H]1C[C@H](Oc2ccccc2-c2cc(Nc3cnc(C#N)cn3)n[nH]2)C1` [Example 1-38, 5-((5-(2-((1r,3r)-3-(methylamino)cyclobutoxy)phenyl)-1H-pyrazol-3-yl)amino)pyrazine-2-carbonitrile] are 0.01 to 0.1 µM and 0.1 to 0.5 µM.
For `COc1cccc(O[C@@H]2CC[C@H](N)C2)c1-c1cc(Nc2cnc(C#N)c(C)n2)n[nH]1` [Example 1-39, 5-((5-(2-(((1R,3S)-3-aminocyclopentyl)oxy)-6-methoxyphenyl)-1H-pyrazol-3-yl)amino)-3-methylpyrazine-2-carbonitrile], the results for the IC50 in assay [1] and in assay [2] were 0.01 to 0.1 µM and 0.5 to 1 µM, respectively.
Taken in the same sequence, the figures for `Cc1nc(Nc2cc(-c3ccccc3O[C@@H]3CC[C@H](N)C3)[nH]n2)cnc1C#N` [Example 1-40, 5-((5-(2-(((1R,3S)-3-aminocyclopentyl)oxy)phenyl)-1H-pyrazol-3-yl)amino)-3-methylpyrazine-2-carbonitrile] were 0.1 to 0.5 µM and > 1 µM.
Taken in the same sequence, the figures for `COc1cc(F)c(-c2cc(Nc3cnc(C#N)cn3)n[nH]2)c(O[C@@H]2CC[C@H](N)C2)c1` [Example 1-41, 5-((5-(2-(((1R,3S)-3-aminocyclopentyl)oxy)-6-fluoro-4-methoxyphenyl)-1H-pyrazol-3-yl)amino)pyrazine-2-carbonitrile] were ≤ 0.01 µM and 0.1 to 0.5 µM.
For the molecule `CN[C@@H]1CC[C@@H](Oc2ccccc2-c2cc(Nc3cnc(C#N)cn3)n[nH]2)C1` [Example 1-42, 5-((5-(2-(((1R,3R)-3-(methylamino)cyclopentyl)oxy)phenyl)-1H-pyrazol-3-yl)amino)pyrazine-2-carbonitrile], the concentration for half-maximal inhibition (IC50) in assay [1] is 0.01 to 0.1 µM; in assay [2], 0.05 to 0.1 µM.
Regarding `CN[C@@H]1CC[C@@H](Oc2cccc(F)c2-c2cc(Nc3cnc(C#N)cn3)n[nH]2)C1` [Example 1-43, 5-((5-(2-fluoro-6-(((1R,3R)-3-(methylamino)cyclopentyl)oxy)phenyl)-1H-pyrazol-3-yl)amino)pyrazine-2-carbonitrile], the IC50 in assay [1] was 0.01 to 0.1 µM; in assay [2], ≤ 0.05 µM.
Taken in the same sequence, the figures for `N#Cc1cnc(Nc2cc(-c3c(F)cccc3O[C@@H]3CC[C@@H](N)C3)[nH]n2)cn1` [Example 1-44, 5-((5-(2-(((1R,3R)-3-aminocyclopentyl)oxy)-6-fluorophenyl)-1H-pyrazol-3-yl)amino)pyrazine-2-carbonitrile] were ≤ 0.01 µM and ≤ 0.05 µM.
Taken in the same sequence, the figures for `CN[C@H]1CC[C@H](Oc2cccc(OC)c2-c2cc(Nc3cnc(C#N)cn3)n[nH]2)CC1` [Example 1-45, 5-((5-(2-methoxy-6-(((1r,4r)-4-(methylamino)cyclohexyl)oxy)phenyl)-1H-pyrazol-3-yl)amino)pyrazine-2-carbonitrile] were ≤ 0.01 µM and 0.05 to 0.1 µM.
Taken in the same sequence, the figures for `CN[C@H]1CC[C@@H](Oc2cccc(OC)c2-c2cc(Nc3cnc(C#N)cn3)n[nH]2)C1` [Example 1-46, 5-((5-(2-methoxy-6-(((1R,3S)-3-(methylamino)cyclopentyl)oxy)phenyl)-1H-pyrazol-3-yl)amino)pyrazine-2-carbonitrile] were ≤ 0.01 µM and ≤ 0.05 µM.
For `COc1cccc(OC2CCC(N)C2C)c1-c1cc(Nc2cnc(C#N)cn2)n[nH]1` (stereo not shown) [Example 1-47, 5-((5-(2-((3-amino-2-methylcyclopentyl)oxy)-6-methoxyphenyl)-1H-pyrazol-3-yl)amino)pyrazine-2-carbonitrile], the IC50 in assay [1] was ≤ 0.01 µM; in assay [2], ≤ 0.05 µM.
The corresponding values for `COc1cccc(O[C@@H]2CC[C@@H](N(C)C)C2)c1-c1cc(Nc2cnc(C#N)cn2)n[nH]1` [Example 1-48, 5-((5-(2-(((1R,3R)-3-(dimethylamino)cyclopentyl)oxy)-6-methoxyphenyl)-1H-pyrazol-3-yl)amino)pyrazine-2-carbonitrile] are ≤ 0.01 µM and 0.05 to 0.1 µM.
The corresponding values for `COc1cccc(O[C@@H]2CC[C@H](N(C)C)C2)c1-c1cc(Nc2cnc(C#N)cn2)n[nH]1` [Example 1-49, 5-((5-(2-(((1R,3S)-3-(dimethylamino)cyclopentyl)oxy)-6-methoxyphenyl)-1H-pyrazol-3-yl)amino)pyrazine-2-carbonitrile] are ≤ 0.01 µM and ≤ 0.05 µM.
The corresponding values for `N#Cc1cnc(Nc2cc(-c3ccccc3O[C@H]3CC[C@@H](N)CC3)[nH]n2)cn1` [Example 1-50, 5-((5-(2-(((1s,4s)-4-aminocyclohexyl)oxy)phenyl)-1H-pyrazol-3-yl)amino)pyrazine-2-carbonitrile] are 0.1 to 0.5 µM and > 1 µM.
Turning to `N#Cc1cnc(Nc2cc(-c3ccccc3O[C@H]3CC[C@H](N)CC3)[nH]n2)cn1` [Example 1-51, 5-((5-(2-(((1r,4r)-4-aminocyclohexyl)oxy)phenyl)-1H-pyrazol-3-yl)amino)pyrazine-2-carbonitrile], the concentration for half-maximal inhibition (IC50) is 0.01 to 0.1 µM in assay [1] and > 1 µM in assay [2].
Turning to `N#Cc1cnc(Nc2cc(-c3ccccc3O[C@@H]3CC[C@H](N)C3)[nH]n2)cn1` [Example 1-52, 5-((5-(2-(((1R,3S)-3-aminocyclopentyl)oxy)phenyl)-1H-pyrazol-3-yl)amino)pyrazine-2-carbonitrile], the values for the IC50 in assay [1] and in assay [2] were 0.01 to 0.1 µM and 0.1 to 0.5 µM, respectively.
The corresponding values for `N#Cc1cnc(Nc2cc(-c3ccccc3O[C@@H]3CC[C@@H](N)C3)[nH]n2)cn1` [Example 1-53, 5-((5-(2-(((1R,3R)-3-aminocyclopentyl)oxy)phenyl)-1H-pyrazol-3-yl)amino)pyrazine-2-carbonitrile] are ≤ 0.01 µM and 0.05 to 0.1 µM.
The corresponding values for `N#Cc1cnc(Nc2cc(-c3ncccc3O[C@H]3C[C@H](N)C3)[nH]n2)cn1` [Example 1-55, 5-((5-(3-((1r,3r)-3-aminocyclobutoxy)pyridin-2-yl)-1H-pyrazol-3-yl)amino)pyrazine-2-carbonitrile] are 0.01 to 0.1 µM and 0.5 to 1 µM.
The corresponding values for `Cc1ccc(O[C@H]2CC[C@H](N)CC2)c(-c2cc(Nc3cnc(C#N)cn3)n[nH]2)n1` [Example 1-56, 5-((5-(3-(((1r,4r)-4-aminocyclohexyl)oxy)-6-methylpyridin-2-yl)-1H-pyrazol-3-yl)amino)pyrazine-2-carbonitrile] are ≤ 0.01 µM and 0.1 to 0.5 µM.
In the case of `Cc1ccc(O[C@@H]2CC[C@H](N)C2)c(-c2cc(Nc3cnc(C#N)cn3)n[nH]2)n1` [Example 1-57], the figures for the IC50 in assay [1] and in assay [2] were ≤ 0.01 µM and 0.05 to 0.1 µM, respectively.
Taken in the same sequence, the figures for `N#Cc1cnc(Nc2cc(-c3ncccc3O[C@@H]3CC[C@@H](N)C3)[nH]n2)cn1` [Example 1-58, 5-((5-(3-(((1R,3R)-3-aminocyclopentyl)oxy)pyridin-2-yl)-1H-pyrazol-3-yl)amino)pyrazine-2-carbonitrile] were ≤ 0.01 µM and ≤ 0.05 µM.
